Experimental findings from patent US7728146B2, “Enzyme inhibitors” (Probiodrug AG, priority 2006, dated 2010) are described below.

In general, IC50 refers to the concentration needed to halve the response being measured.

The structures appear in SMILES notation.

For the first assay, the target named is DP IV (Homo sapiens, UniProt P27487). The assay can be described thus: DP IV inhibition IC50, parallel-synthesis compounds tested directly following synthesis (without purification). Particulars: DP IV inhibition; compounds of formula (Ib) from parallel synthesis, tested directly following synthesis (without purification); read-out: IC50. More on the design: IC50 DP4; other: tested directly following parallel synthesis, without purification; compounds of formula (Ib) from parallel synthesis, tested directly following synthesis. Type of assay: biochemical. Here is the method: Compounds were immediately tested regarding their activity as DP IV inhibitors.
Substances are screened for inhibition of dipeptidyl peptidase (DP IV) by their ability to inhibit the hydrolysis of the DP IV specific substrate Glycyl-Prolyl-4-Nitroanilide (Gly-Pro-pNA). All compounds are diluted in DMSO and IC50 will be determined with 11 serial dilutions (1:2) starting with an final concentration of 100 μM. The final DMSO concentration in the assay is 5% (v/v). The method was automated using a Tecan Genesis Freedom liquid handler and a Genius Pro (Tecan) microplate reader.
DP IV from porcine kidney (pDP IV) or recombinant human DP IV (rhDP IV) is diluted in HEPES buffer to a final activity of approximately 40-50 μU*ml^−1. The DP IV is stored in a cooling rack (4° C.) on the liquid handler.
The assay may becarried out at room temperature using Freedom liquid handler connected with a Genios Pro microplate reader. Each sample is measured in duplicate. Each sample stock solution is prediluted with DMSO in a ratio of 1:5 in a polypropylen 96-well plate. From this predilution 10 serial (1:2) dilutions in DMSO are prepared. 13.5 μl of the 11 DMSO dilutions and DMSO alone are transferred to the measurement microplate (duplicates) and 86.5 μl water, 100 μl HEPES buffer and 50 μl substrate solution are added to each well. The enzymatic reaction is started by addition of 20 μl enzyme solution to each well, and then the microplate is immediately transferred to the microplate reader.
After short mixing (20 s) the release of 4-Nitroanilin (pNA) is monitored at 405 nm for 30 cycles (approx. 18 min).
Post assay calculations are done by the Magellan (Tecan) and Graphit Software. The linear slopes are calculated for each well and averaged for the duplicates. The residue activities are calculated in relation to a sample containing only solvent instead of inhibitor and expressed in %. Residue activities are plotted against the log of inhibitor concentrations and IC50 is calculated by an 4-parameter fitting ranging from 0 to 100%.
Consider `NCc1c(-c2ccc(Cl)cc2Cl)ncn1Cc1cc(F)cc(C(F)(F)F)c1` [3b, C-[5-(2,4-Dichloro-phenyl)-3-(3-fluoro-5-trifluoromethyl-benzyl)-3H-imidazol-4-yl]-methylamine], for which the 50% inhibitory concentration (IC50) was found to be 2.8 µM. For the compound `COc1ccc(CCn2cnc(-c3ccc(Cl)cc3Cl)c2CN)cc1` [45b, C-{5-(2,4-Dichloro-phenyl)-3-[2-(4-methoxy-phenyl)-ethyl]-3H-imidazol-4-yl}-methylamine], the IC50 was determined as 27.1 µM. On the same count and under the same terms, next, `NCc1c(-c2ccc(Cl)cc2Cl)ncn1Cc1ccncc1` [94b, C-[5-(2,4-Dichloro-phenyl)-3-pyridin-4-ylmethyl-3H-imidazol-4-yl]-methylamine]: 8.2 µM; `CC(N)c1c(-c2ccc(Cl)cc2Cl)ncn1Cc1cccnc1` (stereo not drawn) [78b, 1-[5-(2,4-Dichloro-phenyl)-3-pyridin-3-ylmethyl-3H-imidazol-4-yl]-ethylamine]: 28 µM. On to `COc1cccc(Cn2cnc(-c3ccc(Cl)cc3Cl)c2C(C)N)c1` (stereo not drawn) [76b, 1-[5-(2,4-Dichloro-phenyl)-3-(3-methoxy-benzyl)-3H-imidazol-4-yl]-ethylamine], for which the IC50 worked out at 10 µM. On the same count and under the same terms, then `NCc1c(-c2ccc(Cl)cc2Cl)ncn1CCOCCO` [18b, 2-{2-[5-Aminomethyl-4-(2,4-dichloro-phenyl)-imidazol-1-yl]-ethoxy}-ethanol], with 20.8 µM; and `NCc1c(-c2ccc(Cl)cc2Cl)ncn1CCc1ccc(O)cc1` [113b, 4-{2-[5-Aminomethyl-4-(2,4-dichloro-phenyl)-imidazol-1-yl]-ethyl}-phenol], with 21.7 µM. In the case of `NCCCc1c(-c2ccc(Cl)cc2Cl)ncn1CCc1cccc(Cl)c1` [107b, 3-[3-[2-(3-Chloro-phenyl)-ethyl]-5-(2,4-dichloro-phenyl)-3H-imidazol-4-yl]-propylamine], the IC50 is 42.4 µM.

On to `CC(N)c1c(-c2ccc(Cl)cc2Cl)ncn1CCCCCCO` (stereo not drawn) [34b, 6-[5-(1-Amino-ethyl)-4-(2,4-dichloro-phenyl)-imidazol-1-yl]-hexan-1-ol], for which the IC50 stood at 38.8 µM. Still for that read-out and setting: then `NCc1c(-c2ccc(Cl)cc2Cl)ncn1Cc1c(F)cccc1Cl` [123b, C-[3-(2-Chloro-6-fluoro-benzyl)-5-(2,4-dichloro-phenyl)-3H-imidazol-4-yl]-methylamine], with 1.9 µM.

On to `NCc1c(-c2ccc(Cl)cc2Cl)ncn1Cc1ccc(C(F)(F)F)cc1` [98b, C-[5-(2,4-Dichloro-phenyl)-3-(4-trifluoromethyl-benzyl)-3H-imidazol-4-yl]-methylamine], for which the IC50 was determined as 27.1 µM.

Turning to `NCc1c(-c2ccc(Cl)cc2Cl)ncn1Cc1c(F)cccc1F` [40b, C-[5-(2,4-Dichloro-phenyl)-3-(2,6-difluoro-benzyl)-3H-imidazol-4-yl]-methylamine], the 50% inhibitory concentration (IC50) stood at 10.9 µM.

As to `NCc1c(-c2ccc(Cl)cc2Cl)ncn1CCC(c1ccccc1)c1ccccc1` [53b, C-[5-(2,4-Dichloro-phenyl)-3-(3,3-diphenyl-propyl)-3H-imidazol-4-yl]-methylamine], the half-inhibitory concentration (IC50) amounted to 18.1 µM.

With `NCc1c(-c2ccc(Cl)cc2Cl)ncn1Cc1ccc(F)c(F)c1` [Example 92b, C-[5-(2,4-dichloro-phenyl)-3-(3,4-difluoro-benzyl)-3H-imidazol-4-yl]-methylamine], the IC50 came to 1 µM. Same read-out and setting: next, `CC(N)c1c(-c2ccc(Cl)cc2Cl)ncn1Cc1ccccc1Cl` (stereo not drawn) [67b, 1-[3-(2-Chloro-benzyl)-5-(2,4-dichloro-phenyl)-3H-imidazol-4-yl]-ethylamine]: 28.9 µM; `CC(N)c1c(-c2ccc(Cl)cc2Cl)ncn1CCc1ccccc1Cl` (stereo not drawn) [63b, 1-[3-[2-(2-Chloro-phenyl)-ethyl]-5-(2,4-dichloro-phenyl)-3H-imidazol-4-yl]-ethylamine]: 19 µM; `NCc1c(-c2ccc(Cl)cc2Cl)ncn1Cc1ccc(OC(F)(F)F)cc1` [97b, C-[5-(2,4-Dichloro-phenyl)-3-(4-trifluoromethoxy-benzyl)-3H-imidazol-4-yl]-methylamine]: 2.8 µM.

As to `Cc1ccc(Cn2cnc(-c3ccc(Cl)cc3Cl)c2CN)cc1` [66b, C-[5-(2,4-Dichloro-phenyl)-3-(4-methyl-benzyl)-3H-imidazol-4-yl]-methylamine], the 50% inhibitory concentration (IC50) came to 11.8 µM. As to `NCc1c(-c2ccc(Cl)cc2Cl)ncn1Cc1cccc(F)c1` [Example 28b, C-[5-(2,4-dichloro-phenyl)-3-(3-fluoro-benzyl)-3H-imidazol-4-yl]-methylamine], the half-inhibitory concentration (IC50) was 1.9 µM.

The assay is the same for the next values; noted with them: tested directly following parallel synthesis, without purification; read-out: IC50 DP4.
For the compound `COc1cccc(Cn2cnc(-c3ccc(F)cc3Cl)c2CN)c1` [Example 9a, C-[5-(2-Chloro-4-fluoro-phenyl)-3-(3-methoxy-benzyl)-3H-imid-azol-4-yl]-methyl-amine], the IC50 worked out at 16.3 µM.

As to `NCc1c(-c2ccc(F)cc2Cl)ncn1Cc1ccc(F)cc1Cl` [Example 29a, C-[3-(2-Chloro-4-fluoro-benzyl)-5-(2-chlo-ro-4-fluoro-phenyl)-3H-imid-azol-4-yl]-methyl-amine], the 50% inhibitory concentration (IC50) is 31.6 µM. With `NCc1c(-c2ccc(F)cc2Cl)ncn1Cc1ccccc1` [Example 15, C-[3-Benzyl-5-(2-chloro-4-fluoro-phenyl)-3H-imid-azol-4-yl]-methyl-amine], the IC50 stood at 10.9 µM. Turning to `NCc1c(-c2ccc(F)cc2Cl)ncn1Cc1c(F)cccc1Cl` [Example 13a, C-[3-(2-Chloro-6-fluoro-benzyl)-5-(2-chloro-4-fluoro-phenyl)-3H-imid-azol-4-yl]-methyl-amine], the half-maximal inhibitory concentration (IC50) worked out at 36.1 µM. On the same count and under the same terms, then `NCc1c(-c2ccc(F)cc2Cl)ncn1Cc1ccccc1Cl` [Example 3a, C-[3-(2-Chloro-benzyl)-5-(2-chlo-ro-4-fluoro-phenyl)-3H-imid-azol-4-yl]-methyl-amine], with 18.1 µM; and `NCc1c(-c2ccc(Cl)cc2Cl)ncn1Cc1cccc(F)c1` [Example 42a, C-[5-(2,4-Dichloro-phenyl)-3-(3-fluoro-benzyl)-3H-imid-azol-4-yl]-methyl-amine], with 1 µM; and `NCc1c(-c2ccc(F)cc2Cl)ncn1Cc1ccc(F)cc1` [Example 5a, C-[5-(2-Chloro-4-fluoro-phenyl)-3-(4-fluoro-benzyl)-3H-imid-azol-4-yl]-methyl-amine], with 10.9 µM. Still for that read-out and setting: then `COc1cccc(Cn2cnc(-c3ccc(F)cc3F)c2CN)c1` [Example 77a, C-[5-(2,4-Difluoro-phenyl)-3-(3-methoxy-benzyl)-3H-imid-azol-4-yl]-methyl-amine], with 24.4 µM. Still for that read-out and setting: then `NCc1c(-c2ccc(Cl)cc2Cl)ncn1Cc1ccco1` [Example 33a, C-[5-(2,4-Dichloro-phenyl)-3-furan-2-ylmethyl-3H-imidazol-4-yl]-methylamine], with 0.1 µM. For the compound `CCOc1ccccc1Cn1cnc(-c2ccc(C)cc2C)c1CN` [Example 70a, C-[5-(2,4-Dimethyl-phenyl)-3-(2-ethoxy-benzyl)-3H-imid-azol-4-yl]-methyl-amine], the IC50 turned out to be 16.3 µM. On the same count and under the same terms, next, `NCc1c(-c2ccc(F)cc2F)ncn1Cc1ccc2c(c1)OCO2` [Example 81a, C-[3-Ben-zo[1,3]di-oxol-5-yl-methyl-5-(2,4-difluoro-phenyl)-3H-imid-azol-4-yl]-methyl-amine]: 46.9 µM; `NCc1c(-c2ccc(F)cc2F)ncn1Cc1cccnc1` [Example 89a, C-[5-(2,4-Difluoro-phenyl)-3-pyri-din-3-yl-methyl-3H-imid-azol-4-yl]-methyl-amine]: 22.6 µM. On the same count and under the same terms, next, `NCc1c(-c2ccc(Cl)cc2Cl)ncn1Cc1cccs1` [Example 32a, C-[5-(2,4-Di-chloro-phenyl)-3-thio-phen-2-yl-methyl-3H-imid-azol-4-yl]-methyl-amine]: 0.1 µM; `NCc1c(-c2ccc(F)cc2Cl)ncn1Cc1cccs1` [Example 1a, C-[5-(2-Chloro-4-fluoro-phenyl)-3-thio-phen-2-yl-methyl-3H-imid-azol-4-yl]-methyl-amine]: 11.8 µM.

With `NCc1c(-c2ccc(F)cc2Cl)ncn1Cc1cccc(C(F)(F)F)c1` [Example 6a, C-[5-(2-Chloro-4-fluoro-phenyl)-3-(3-tri-fluoromethyl-benzyl)-3H-imid-azol-4-yl]-methyl-amine], the half-maximal inhibitory concentration (IC50) turned out to be 17.2 µM. The same measure, in the same setting: then `CCOc1ccccc1Cn1cnc(-c2ccc(F)cc2Cl)c1CN` [Example 18a, C-[5-(2-Chloro-4-fluoro-phenyl)-3-(2-ethoxy-benzyl)-3H-imidazol-4-yl]-methylamine], with 6.4 µM. Still for that read-out and setting: next, `NCc1c(-c2ccc(Cl)cc2Cl)ncn1Cc1ccc(Cl)cc1Cl` [Example 57a, C-[3-(2,4-Dichloro-benzyl)-5-(2,4-dichloro-phenyl)-3H-imid-azol-4-yl]-methyl-amine]: 9.1 µM.
